The subject of one assay is Erysiphe graminis. In words: Powdery mildew in barley, foliar application (ERY GRA). The conditions noted are these: foliar, 1,000 mg/l, 8 days after inoculation; for pest or weed control at 1000 µg/mL: Blumeria graminis, foliar, 192 h, read-out: Percent Reduction of Disease, ERY GRA. Type of assay: in vivo. The protocol:
Compositions containing Compounds Nos. 1-81 were prepared by dissolving 0.24 grams of each of the compounds in 8 ml of acetone or other suitable inert solvent. Each of the resultant solutions was treated with 3 drops of TWEEN 20 (ethoxylated ethylene sorbitan monolaurate, a non-ionic surfactant)(I.C.I.), and water was added to form an emulsion. The degree of dilution with water was dictated by the desired concentration of the compound in the composition. The greater the quantity of water added, the lower the concentration of the compound in the composition, reported in milligrams per liter (mg/l) Ten plants of "Robust" variety barley were planted in each of a plurality of pots. Each pot was then either sprayed with one of the compositions of Example 9, at a composition concentration of 1,000 mg/l, or left unsprayed. For each pot sprayed, one pot was left unsprayed as a control. After the leaves of the sprayed pots were dried, the sprayed pots and the unsprayed control pots were placed in a greenhouse maintained at 21° C. All the pots were then inoculated with barley powdery mildew fungus, Erysiphe graminis. This inoculation was accomplished by distributing spores of the fungus over the leaves of the plants to be tested from plants which had previously been infected with the mildew disease. […] Again, percent control was computed by comparing the treatment scores with the scores of the untreated controls. The results are summarized in Table II under the heading "ERY GRA".

Another assay has as its system Septoria nodorum. Put plainly: Fungal growth inhibition, treated disc on agar (SEP NOD). Type of assay: cell-based. The conditions noted are these: disc dipped in 500 mg/l, 29° C.; for inhibition at 500 µg/mL: Parastagonospora nodorum, read-out: Percent Growth Inhibition, SEP NOD.
A further assay concerns Uromyces phaseoli. Put plainly: Bean rust fungus eradicant test (URO PHA). Type of assay: in vivo. The conditions noted are these: pinto bean, eradicant spray 2 days after inoculation, 1,000 mg/l; for pest or weed control at 1000 µg/mL: Uromyces phaseoli, 216 h, read-out: Percent Reduction of Disease, URO PHA. As for the experimental part:
Compositions containing Compounds Nos. 1-81 were prepared by dissolving 0.24 grams of each of the compounds in 8 ml of acetone or other suitable inert solvent. Each of the resultant solutions was treated with 3 drops of TWEEN 20 (ethoxylated ethylene sorbitan monolaurate, a non-ionic surfactant)(I.C.I.), and water was added to form an emulsion. The degree of dilution with water was dictated by the desired concentration of the compound in the composition. The greater the quantity of water added, the lower the concentration of the compound in the composition, reported in milligrams per liter (mg/l) A plurality of pots were each planted with two pinto bean plants, Phaseolus vulgaris, each, susceptible to rust disease. When the plants were 7 days old, at the primary leaf stage of growth, they were all sprayed with a suspension containing 20,000 spores of the bean rust fungus, Uromyces phaseoli, per ml. All the pots were then incubated in a controlled environmental chamber, maintained at 99% humidity and 21° C., for 24 hours to allow infection to occur. The plants were then removed from the incubator and allowed to dry. Two days after inoculation each of the infected plants was then either sprayed with one of the compositions of Example 9, at a dosage of 1,000 mg/l, or left unsprayed. The unsprayed plants acted as controls. All of the sprayed and unsprayed plants were then placed in a greenhouse at 21° C. for nine days to allow the disease to develop. […] Control of disease was determined by comparing treated plants with the untreated controls. The results, expressed as percent reduction of disease, are summarized in Table II under the heading "URO PHA".

In a further assay the test system is Erysiphe cichoracearum. Put plainly: Powdery mildew of cucumber, systemic root uptake (CMS). Type of assay: in vivo. The conditions noted are these: 45 ml of 250 mg/l, 8 days after inoculation. The protocol:
Compositions containing Compounds Nos. 1-81 were prepared by dissolving 0.24 grams of each of the compounds in 8 ml of acetone or other suitable inert solvent. Each of the resultant solutions was treated with 3 drops of TWEEN 20 (ethoxylated ethylene sorbitan monolaurate, a non-ionic surfactant)(I.C.I.), and water was added to form an emulsion. The degree of dilution with water was dictated by the desired concentration of the compound in the composition. The greater the quantity of water added, the lower the concentration of the compound in the composition, reported in milligrams per liter (mg/l) […] Upon reaching these ages, the plants were either treated with 45 ml of 250 mg/l concentration of the compositions of Example 9 or were left untreated. The untreated plants were used as controls. The 45 ml compositions saturated the soil of the treated pots without significant loss through drainage into the saucers below the pots. Twenty-four hours after the treatment with the compositions, both the barley and cucumber plants in all the pots, those treated and those untreated, were inoculated with powdery mildew fungus. This was accomplished by tapping leaves of previously infected barley and cucumber plants over the treated and untreated pots containing the barley and cucumber plants, respectively, to distribute spores of the fungus over the plants tested. […] Intermediate ratings were assigned depending on the degree of disease. […] The results of the powdery mildew disease control of barley are reported under the heading of "BMS". The results for cucumber mildew control are reported under the heading "CMS".

A further assay relates to Fusarium oxysporum. In words: Fungal growth inhibition, treated disc on agar (FUS OXY). The conditions noted are these: disc dipped in 500 mg/l, 29° C.; for inhibition at 500 µg/mL: Fusarium oxysporum, read-out: Percent Growth Inhibition, FUS OXY. In kind it is cell-based.
For assay [1], the system named is Cercosporidium personatum. Put plainly: Fungal germination and growth, treated disc on agar, scored (CER PER). As to conditions: disc dipped in 500 mg/l, 29° C., numerical score 0-100, spore suspension. Further details: key: 100: Complete inhibition of germination and growth.; 80: Nearly complete inhibition but some growth.; 50: Partial inhibition of growth or, early complete inhibition but later growth begins.; 20: Some inhibition of growth, but not significant.; 0: No inhibition of growth. Type of assay: cell-based. The source says:
Filter paper discs, each 11 mm. in diameter, were dipped in each of the test solutions. The discs were allowed to air dry to drive off the acetone solvent. A number of untreated discs were used as controls. The treated and untreated discs were then placed on agar plates and one of the following fungus species: Septoria nodorum (SEP NOD), Botrytis cinerea (BOT CIN), Fusarium oxysporum (FUS OXY), Pythium ultimum ([…]), Rhizoctonia solani (RHI SOL), Colletotrichum gossypii (COL GOS), and Scierotinia minor (SCL MIN), was added to the center of each disc in the form of a culture plug with the fungus mat in contact with the paper of the test disc. Cercosporidium personatum (CER PER), was added to discs as a spore suspension (20,000 spores/ml) to the disc (two drops of spore suspension per disc), rather than a mycelial culture plug. The plates were then incubated at 29° C. in an oven. In the case of the Cercosporidium personatum (CER PER) fungi, scoring was done on a numerical basis as follows: 100=Complete inhibition of germination and growth. 80=Nearly complete inhibition but some growth. 50=Partial inhibition of growth or, early complete inhibition but later growth begins. 20=Some inhibition of growth, but not significant. 0=No inhibition of growth. The results of all the above tests appear in Table III below under the headings "SEP NOD," "BOT CIN," "FUS OXY," "[…]" "COL GOS" and "CER PER".

The next assay concerns Botrytis cinerea. In words: Fungal growth inhibition, treated disc on agar (BOT CIN). Type of assay: cell-based. The conditions noted are these: disc dipped in 500 mg/l, 29° C.; for inhibition at 500 µg/mL: Botrytis cinerea, read-out: Percent Growth Inhibition, BOT CIN.

SMILES strings stand for the structures.

Method for Septoria nodorum: The treated and untreated discs were then placed on agar plates and one of the following fungus species: Septoria nodorum (SEP NOD), Botrytis cinerea (BOT CIN), Fusarium oxysporum (FUS OXY), Pythium ultimum (PYT ULT), Rhizoctonia solani (RHI SOL), Colletotrichum gossypii (COL GOS), and Scierotinia minor (SCL MIN), was added to the center of each disc in the form of a culture plug with the fungus mat in contact with the paper of the test disc. Cercosporidium personatum (CER PER), was added to discs as a spore suspension (20,000 spores/ml) to the disc (two drops of spore suspension per disc), rather than a mycelial culture plug. The plates were then incubated at 29° C. in an oven.
With the exception of the discs containing Cercosporidium personatum, the discs were evaluated by first measuring the radius from the center of the fungus colony on the treated discs and on the untreated discs. Percent growth inhibition of each of the compounds tested was determined as a function of the difference between the radius of the fungus colony on the treated disc versus the radius of the fungus colony on the untreated disc.

As for `CCCC(C#N)(CCCc1ccc(Cl)cc1)c1cccnc1` (stereo not drawn) [Compound 12], the pest or weed control at 1000 µg/mL with Erysiphe graminis and in the assay with Uromyces phaseoli was 100% each time. Besides, the inhibition at 500 µg/mL with Septoria nodorum was 70%; in the assay on Fusarium oxysporum it was 80%; in the assay on Botrytis cinerea, 98%. Moreover, the “Percent Reduction of Disease, CMS” value in the assay on Erysiphe cichoracearum came out at 40%. For the same compound, the “CER PER inhibition score” value in assay [1] is recorded as 100.
`CCCCC(C#N)(CCCc1ccc(Cl)cc1)c1cccnc1` (stereo not drawn) [Compound 13]: the pest or weed control at 1000 µg/mL in the assay on Erysiphe graminis and with Uromyces phaseoli was 100% each time. For the same compound, the inhibition at 500 µg/mL in the assay on Septoria nodorum was 75%; in the assay on Fusarium oxysporum, 60%; in the assay on Botrytis cinerea it was 98%. Moreover, the “Percent Reduction of Disease, CMS” value in the assay on Erysiphe cichoracearum is on record as 0%. The “CER PER inhibition score” value in assay [1] amounted to 0.
With `CCCC(C#N)(Cc1ccc(C(C)(C)C)cc1)c1cccnc1` (stereo not drawn) [Compound 14], the pest or weed control at 1000 µg/mL worked out at 100% in the assay on Erysiphe graminis and 33% in the assay with Uromyces phaseoli. Besides, the figures for the inhibition at 500 µg/mL with Septoria nodorum, in the assay with Fusarium oxysporum and in the assay on Botrytis cinerea were 0%, 25% and 15%, respectively. Also, in the assay with Erysiphe cichoracearum, the “Percent Reduction of Disease, CMS” value is given as 84%. In assay [1], the “CER PER inhibition score” value turned out to be 0.
For the compound `CCCC(C#N)(CCCc1ccccc1Cl)c1cccnc1` (stereo not drawn) [Compound 15, 2-chloro-α-propyl-(3-pyridinyl)benzene pentanenitrile], the pest or weed control at 1000 µg/mL in the assay with Erysiphe graminis is 100%; with Uromyces phaseoli it was 83%. Further, the values for the inhibition at 500 µg/mL with Septoria nodorum, in the assay with Fusarium oxysporum and with Botrytis cinerea were 93%, 95% and 30%, respectively. Further, the “Percent Reduction of Disease, CMS” value in the assay on Erysiphe cichoracearum is given as 96%. Besides, the “CER PER inhibition score” value in assay [1] was determined as 100.
Turning to `CCCCCCC(C#N)(Cc1ccc(C(C)(C)C)cc1)c1cccnc1` (stereo not drawn) [Compound 16], the pest or weed control at 1000 µg/mL was found to be 85% in the assay with Erysiphe graminis and 0% in the assay on Uromyces phaseoli. Besides, the inhibition at 500 µg/mL in the assay with Septoria nodorum came to 45%; with Fusarium oxysporum, 5%; in the assay on Botrytis cinerea, 20%. The “Percent Reduction of Disease, CMS” value in the assay with Erysiphe cichoracearum is given as 0%. The “CER PER inhibition score” value in assay [1] was determined as 0.
With `CCCC(C#N)(Cc1ccc(Oc2ccccc2)cc1)c1cccnc1` (stereo not drawn) [Compound 17], the pest or weed control at 1000 µg/mL amounted to 70% with Erysiphe graminis and 0% with Uromyces phaseoli. For the same compound, the figures for the inhibition at 500 µg/mL with Septoria nodorum, with Fusarium oxysporum and with Botrytis cinerea were 55%, 60% and 5%, respectively. Also, the “Percent Reduction of Disease, CMS” value in the assay on Erysiphe cichoracearum amounted to 100%. In assay [1], the “CER PER inhibition score” value stood at 0.
Turning to `C=CCC(C#N)(Cc1ccc(C(C)(C)C)cc1)c1cccnc1` (stereo not drawn) [Compound 18], the pest or weed control at 1000 µg/mL came to 100% with Erysiphe graminis and 0% in the assay on Uromyces phaseoli. In addition, the inhibition at 500 µg/mL with Septoria nodorum stood at 5%; in the assay with Fusarium oxysporum, 50%; with Botrytis cinerea, 10%. For the same compound, the “Percent Reduction of Disease, CMS” value with Erysiphe cichoracearum is on record as 20%. Besides, in assay [1], the “CER PER inhibition score” value amounted to 0.
With `CCCCC(C#N)(Cc1ccc(C(C)(C)C)cc1)c1cccnc1` (stereo not drawn) [Compound 19], the figures for the pest or weed control at 1000 µg/mL in the assay on Erysiphe graminis and in the assay on Uromyces phaseoli were 100% and 0%, respectively. In addition, the inhibition at 500 µg/mL was 96% with Septoria nodorum, 100% in the assay with Fusarium oxysporum and 40% with Botrytis cinerea. For the same compound, the “Percent Reduction of Disease, CMS” value in the assay with Erysiphe cichoracearum is given as 0%. Besides, in assay [1], the “CER PER inhibition score” value is 100.
In the case of `CCCC(C#N)(CCc1ccccc1)c1ccncc1` (stereo not drawn) [Compound 25], the pest or weed control at 1000 µg/mL amounted to 67% in the assay on Erysiphe graminis and 17% in the assay on Uromyces phaseoli. Also, the inhibition at 500 µg/mL came to 19% with Septoria nodorum, 63% with Fusarium oxysporum and 55% in the assay with Botrytis cinerea. In the assay on Erysiphe cichoracearum, the “Percent Reduction of Disease, CMS” value is reported as 17%. Besides, the “CER PER inhibition score” value in assay [1] was 0.
Consider `CCCCC(C#N)(CCc1ccccc1)c1ccncc1` (stereo not drawn) [Compound 26], for which the values for the pest or weed control at 1000 µg/mL in the assay on Erysiphe graminis and in the assay with Uromyces phaseoli were 50% and 0%, respectively. Moreover, the inhibition at 500 µg/mL came to 45% with Septoria nodorum, 59% with Fusarium oxysporum and 5% with Botrytis cinerea. The “Percent Reduction of Disease, CMS” value in the assay with Erysiphe cichoracearum was found to be 0%. For the same compound, in assay [1], the “CER PER inhibition score” value came to 0.
With `C=CCC(C#N)(CCc1ccc(OC)cc1)c1ccccn1` (stereo not drawn) [Compound 28], the “Percent Reduction of Disease, ERY GRA” value in the assay with Erysiphe graminis came out at 90%. For the same compound, in the assay on Septoria nodorum, the “Percent Growth Inhibition, SEP NOD” value was 96%. In the assay on Uromyces phaseoli, the “Percent Reduction of Disease, URO PHA” value was found to be 100%. In addition, the “Percent Reduction of Disease, CMS” value in the assay on Erysiphe cichoracearum amounted to 0%. For the same compound, the “Percent Growth Inhibition, FUS OXY” value in the assay with Fusarium oxysporum is on record as 100%. In addition, the “CER PER inhibition score” value in assay [1] was 100. For the same compound, the “Percent Growth Inhibition, BOT CIN” value in the assay on Botrytis cinerea worked out at 98%.
For the compound `COc1ccc(CCC(C#N)(CC(C)C)c2ccccn2)cc1` (stereo not drawn) [Compound 29], the “Percent Reduction of Disease, ERY GRA” value in the assay on Erysiphe graminis came to 100%. Moreover, the “Percent Growth Inhibition, SEP NOD” value in the assay with Septoria nodorum came to 83%. Also, the “Percent Reduction of Disease, URO PHA” value in the assay with Uromyces phaseoli is on record as 100%. Moreover, the “Percent Reduction of Disease, CMS” value with Erysiphe cichoracearum is reported as 0%. The “Percent Growth Inhibition, FUS OXY” value in the assay with Fusarium oxysporum stood at 97%. Also, in assay [1], the “CER PER inhibition score” value came to 100. Further, the “Percent Growth Inhibition, BOT CIN” value with Botrytis cinerea was determined as 98%.

One may read the inhibition as the share of the control response that was lost under treatment.

The values are drawn from patent publication US5945436A, “Pyridylmethyl nitriles, amides and thioamides useful as fungicides” (Uniroyal Chemical Company, Inc., priority 1997, dated 1999).
